Data from US6410792B1, “Amide derivatives and methods for using the same as selective neuropeptide Y receptor antagonists” (Bayer Corporation, priority 1997, dated 2002).
Counter-ions that a name gives are not always drawn.

What was measured:
Rat NPY5 receptor = target: T1, Rat NPY5 receptor (Rattus norvegicus, UniProt Q63634); experiment: Rat NPY5 receptor binding assay ([125I]PYY, membrane protein); conditions: [125I]PYY, read-out: rNPY5 IC50
T1 sequence (Q63634 1-445): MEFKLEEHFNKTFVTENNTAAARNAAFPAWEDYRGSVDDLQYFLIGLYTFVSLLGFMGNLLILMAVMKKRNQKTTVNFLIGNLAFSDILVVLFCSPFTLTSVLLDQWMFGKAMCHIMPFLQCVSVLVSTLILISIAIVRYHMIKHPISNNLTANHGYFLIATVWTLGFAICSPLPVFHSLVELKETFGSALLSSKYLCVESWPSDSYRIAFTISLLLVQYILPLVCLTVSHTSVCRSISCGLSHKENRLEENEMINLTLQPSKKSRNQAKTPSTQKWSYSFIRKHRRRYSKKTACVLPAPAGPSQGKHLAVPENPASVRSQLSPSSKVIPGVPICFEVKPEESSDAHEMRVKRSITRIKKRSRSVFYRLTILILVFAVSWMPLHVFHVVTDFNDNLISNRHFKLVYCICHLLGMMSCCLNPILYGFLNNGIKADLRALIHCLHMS
Description: C. Human and Rat NPY5 Receptor Binding Assays
Binding assays are performed on GF/C Millipore 96well plates pretreated with 0.02% polyethylenimine. The binding buffer is 25 mM Tris, 120 mM NaCl, 5 mM KCl, 1.2 mM KH2PO4, 2.5 mM CaCl2, 1.2 mM MgSO4, 0.1% BSA and 0.5 mg/ml bacitracin, pH 7.4. Samples consist of membrane protein, 75-100 pM [125I]PYY (porcine, NEN-DuPont) and drug dilution. Nonspecific binding is defined by 1 μM PYY. After a 2 hour incubation at room temperature with constant mixing, the samples are aspirated on a vacuum manifold, and rinsed with ice-cold binding buffer. The amount of radioactivity in each well is quantitated with either gamma counting or liquid scintillation.

Human NPY5 receptor = target: T2, Human NPY5 receptor (Homo sapiens, UniProt Q15761); experiment: Human NPY5 receptor binding assay ([125I]PYY, membrane protein); conditions: [125I]PYY, read-out: hNPY5 IC50
T2 sequence (Q15761 1-445): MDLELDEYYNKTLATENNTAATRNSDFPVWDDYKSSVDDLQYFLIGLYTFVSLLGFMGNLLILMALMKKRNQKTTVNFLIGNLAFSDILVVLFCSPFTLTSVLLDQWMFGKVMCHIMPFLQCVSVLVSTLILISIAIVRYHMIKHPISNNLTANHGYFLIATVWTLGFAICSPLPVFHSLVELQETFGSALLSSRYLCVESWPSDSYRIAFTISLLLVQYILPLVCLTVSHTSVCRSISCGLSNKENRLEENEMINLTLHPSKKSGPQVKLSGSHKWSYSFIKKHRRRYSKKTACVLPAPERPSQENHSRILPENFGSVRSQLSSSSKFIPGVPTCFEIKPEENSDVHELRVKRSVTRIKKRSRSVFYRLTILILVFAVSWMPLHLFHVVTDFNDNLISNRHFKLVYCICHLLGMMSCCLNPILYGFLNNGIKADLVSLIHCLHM
How it was run: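 Competition against porcine [125I]PYY (75-100 pM) on receptor membranes, 2 h, room temperature, Tris-based pH 7.4 buffer with BSA and bacitracin. Bound radioactivity after filtration and ice-cold rinse counted by gamma or liquid scintillation; 1 μM PYY defines nonspecific binding.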

human Y4/PP1 receptor = human Y4/PP1 receptor (Homo sapiens, UniProt P50391); experiment: Human Y4/PP1 receptor binding assay ([125I]human PP, membrane protein); conditions: [125I]human PP, membrane protein; read-out: hNPY4 IC50
Chain of human Y4/PP1 receptor (P50391 whole entry): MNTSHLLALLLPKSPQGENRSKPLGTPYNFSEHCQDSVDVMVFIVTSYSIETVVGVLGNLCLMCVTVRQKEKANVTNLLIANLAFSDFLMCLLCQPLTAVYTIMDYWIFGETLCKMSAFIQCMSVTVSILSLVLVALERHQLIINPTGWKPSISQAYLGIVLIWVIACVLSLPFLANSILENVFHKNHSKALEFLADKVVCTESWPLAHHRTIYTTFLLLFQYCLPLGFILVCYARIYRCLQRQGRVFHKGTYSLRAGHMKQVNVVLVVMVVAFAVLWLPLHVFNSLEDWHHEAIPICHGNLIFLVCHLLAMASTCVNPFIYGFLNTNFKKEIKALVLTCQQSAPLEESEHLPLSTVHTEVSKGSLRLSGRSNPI
Description: B. Human Y2 and Y4/PP1 Receptor Binding Assays
Binding assays were performed on GF/C Millipore 96-well plates pretreated with 0.02% polyethylenimine. The binding buffer for rat Y2 binding is Krebs-Ringer bicarbonate (pH 7.4) containing 0.01% BSA and 0.005% bacitracin. Samples consist of membrane protein, 25 pM [1251]PYY and drug dilution. Nonspecific binding is defined by 1 μM NPY. The binding buffer for human Y4/PP1 binding consists of 137 mM NaCl, 5.4 mM KCl, 0.44 mM KH2PO4, 1.26 mM CaCl2, 0.81 mM MgSO4, 20 mM HEPES, 1 mM dithiothreitol, 0.1% bacitracin, 100 mg/l streptomycin sulfate, 1 mg/l aprotinin, 10 mg/ml soybean trypsin inhibitor and 0.3% BSA, pH 7.4. Samples consist of membrane protein, 50 pM human [1251]human PP (hPP: NEN DuPont, Boston, Mass.) and drug dilution. 1 μM hPP is used to define nonspecific binding.
After a 2 hour incubation at room temperature with constant mixing, the samples are aspirated on a vacuum manifold, and rinsed with ice-cold binding buffer. The amount of radioactivity in each well is quantitated with either gamma counting or liquid scintillation.

Human NPY1 receptor = target: T3, Human NPY1 receptor (Homo sapiens, UniProt P25929); experiment: Human NPY1 receptor binding assay ([125I]PYY, SK-N-MC cells); conditions: [125I]PYY, SK-N-MC cells; read-out: hNPYI IC50
T3 construct: host or cells: SK-N-MC cells
T3 sequence (P25929 1-384): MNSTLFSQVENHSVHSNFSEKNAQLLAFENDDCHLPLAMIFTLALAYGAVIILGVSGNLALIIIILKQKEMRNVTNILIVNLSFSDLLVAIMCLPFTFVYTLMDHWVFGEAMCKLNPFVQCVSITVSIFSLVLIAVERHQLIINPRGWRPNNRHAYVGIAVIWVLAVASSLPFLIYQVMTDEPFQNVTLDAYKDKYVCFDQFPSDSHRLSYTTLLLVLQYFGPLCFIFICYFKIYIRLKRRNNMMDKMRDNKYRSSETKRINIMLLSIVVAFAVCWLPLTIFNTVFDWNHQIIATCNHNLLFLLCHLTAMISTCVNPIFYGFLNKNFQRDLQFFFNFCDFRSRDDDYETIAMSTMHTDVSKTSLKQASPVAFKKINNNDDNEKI
Description: A. Human NPY1 Receptor Binding Assay
This is a modification of Gordon et al., (J. Neurochem. 55:506-513, 1990). SK-N-MC cell (ATCC, Rockville, Md.) were plated in 24-well plates. Once confluent, cells were rinsed with Dulbecco's phosphate buffered saline (DPBS). Cells were then preincubated in binding buffer containing serum-free DMEM, 25 mM HEPES (pH 7.3), 0.5% bovine serum albumin (BSA), 0.1% bacitracin and 0.1 mM phenylmethylsulfonylfluoride for 30 minutes at room temperature. Drug dilution and [125I]PYY (˜50 pM: NEN-DuPont) were added to the wells, and the cells were incubated for an additional 3 hours at room temperature, followed by rinsing with ice-cold DPBS. Nonspecific binding was defined with 1 μM NPY. After lysing the cells with 1% Triton X-100, the amount of radioactivity in the lysates was quantitated with a gamma counter.

Y2 receptor = target: T4, Y2 receptor (Homo sapiens, UniProt P49146); experiment: Y2 receptor binding assay ([125I]PYY, membrane protein); conditions: [125I]PYY, membrane protein; read-out: hNPY2 IC50
T4 sequence (P49146 1-381): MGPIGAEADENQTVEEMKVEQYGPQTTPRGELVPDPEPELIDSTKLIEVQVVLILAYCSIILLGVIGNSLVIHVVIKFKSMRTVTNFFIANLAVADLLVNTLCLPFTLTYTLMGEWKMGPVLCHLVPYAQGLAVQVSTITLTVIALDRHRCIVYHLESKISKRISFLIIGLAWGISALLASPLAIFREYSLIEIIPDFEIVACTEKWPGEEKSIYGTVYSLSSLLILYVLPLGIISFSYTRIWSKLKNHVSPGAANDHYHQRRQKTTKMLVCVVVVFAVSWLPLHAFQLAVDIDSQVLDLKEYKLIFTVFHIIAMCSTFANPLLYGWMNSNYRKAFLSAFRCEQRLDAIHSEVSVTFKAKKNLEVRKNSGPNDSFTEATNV
How it was run: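 Filtration binding with membrane protein and drug dilution, 2 h at room temperature with mixing, radioactivity counted by gamma or scintillation. Y2: 25 pM [125I]PYY in Krebs-Ringer bicarbonate pH 7.4 with 0.01% BSA, nonspecific by 1 μM NPY. Y4/PP1: 50 pM [125I]hPP in HEPES-buffered saline pH 7.4 with protease inhibitors and 0.3% BSA, nonspecific by 1 μM hPP.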

Row | Molecule | IC50 (Rat NPY5 receptor) [µM] | IC50 (Human NPY5 receptor) [µM] | IC50 (human Y4/PP1 receptor) [µM] | IC50 (Human NPY1 receptor) [µM] | IC50 (Y2 receptor) [µM]
1 | N-(2-Amino-4-propylsulfnyl-phenyl)-2-[4-(2-oxo-2,3-dihydro-benzoimidazol-1-yl)-pipendin-1-yl]-acetamide; compound with GENERIC INORGANIC NEUTRAL COMPONENT [Compound 339, reference compound] | 0.031 | 0.034 | > 5 | > 5 | > 5
2 | O=C(CNCCCn1c(=O)[nH]c2ccccc21)Nc1ccc(C2CCCCC2)cc1 [Compound 276, N-(4-Cyclohexyl-phenyl)-2-[3-(2-oxo-2,3-dihydro-benzoimidazol-1-yl)-propylamino]-acetamide] | – | 1.1 | > 5 | – | > 5
3 | O=C(CN1CCC(n2c(=O)[nH]c3ccccc32)CC1)NC1CC2CCC1C2 (stereo not drawn) [Compound 326, N-Bicyclo[2.2.1]hept-2-yl-2-[4-(2-oxo-2,3-dihydro-benzoimidazol-1-yl)-piperidin-1-yl] acetamide] | – | – | > 5 | – | > 5
4 | COc1ccc(-c2ccccc2)cc1NC(=O)CN1CCC(n2c(=O)[nH]c3ccccc32)CC1 [Compound 328, N-(4-Methoxy-biphenyl-3-yl)-2-[4-(2-oxo-2,3-dihydro-benzoimidazol-1-yl)-piperidin-1-yl]-acetamide; hydrochloride] | – | – | > 5 | – | > 5
5 | O=C(CN1CCC(n2c(=O)[nH]c3ccccc32)CC1)Nc1cccc(-c2ccccc2)c1 [Compound 323, N-Biphenyl-3-yl-2-[4-(2-oxo-2,3-dihydro-benzoimidazol-1-yl)-piperidin-1 yl]-acetamide; hydrochloride] | 0.026 | 0.026 | > 5 | > 5 | –
6 | Nc1ccccc1NC(=O)CN1CCC(n2c(=O)[nH]c3ccccc32)CC1 [Compound 331, N-(2-Amino-phenyl)-2-[4-(2-oxo-2,3-dihydro-benzoimidazol-1-yl)-piperidin-1-yl]-acetamide, reference compound] | – | – | > 5 | – | > 5

Next, values leading:

Row | IC50 (Rat NPY5 receptor) [µM] | IC50 (Human NPY5 receptor) [µM] | IC50 (human Y4/PP1 receptor) [µM] | IC50 (Human NPY1 receptor) [µM] | IC50 (Y2 receptor) [µM] | Molecule
7 | 0.13 | 0.143 | > 5 | > 5 | > 5 | CCOc1ccc(NC(=O)CN2CCC(n3c(=O)[nH]c4ccccc43)CC2)cc1 [Compound 347, N-(4-Ethoxy-phenyl)-2-[4-(2-oxo-2,3-dihydro-benzoimidazol-1-yl)-piperidin-1-yl]-acetamide, reference compound]
8 | 0.098 | 0.11 | > 5 | > 5 | > 5 | Nc1cc(S(=O)(=O)c2ccccc2)ccc1NC(=O)CN1CCC(n2c(=O)[nH]c3ccccc32)CC1 [Compound 335, N-(2-Amino-4-benzenesulfonyl-phenyl)-2-[4-(2-oxo-2,3-dihydro-benzoimidazol-1-yl)-piperidin-1-yl]-acetamide, reference compound]
9 | – | 0.227 | > 5 | > 5 | > 5 | O=C(CN1CCC(n2c(=O)[nH]c3ccccc32)CC1)Nc1cccc2ccc(O)cc12 [Compound 340, reference compound]
10 | – | – | > 5 | – | > 5 | NC(=O)c1cc(N)ccc1NC(=O)CN1CCC(n2c(=O)[nH]c3ccccc32)CC1 [Compound 334, 5-Amino-2-{2-[4-(2-oxo-2,3-dihydro-benzoimidazol-1-yl)piperidin 1-yl]-acetylamino}-benzamide, reference compound]
11 | 0.115 | 0.2 | > 5 | > 5 | – | O=C(CN1CCOCC1)Nc1ccc(C2CCCCC2)cc1 [Compound 362, N-(4-Cyclohexyl-phenyl)-2-morpholin-4-yl-acetamide, reference compound]
12 | 0.53 | 0.61 | – | > 5 | > 5 | O=C(CN1CCC(n2c(=O)[nH]c3ccccc32)CC1)NCc1ccc(F)cc1F [Compound 332, N-(2,4-Difluoro-benzyl)-2-[4-2(oxo-2,3-dihydro-benzoimidazol-1-yl)-piperidin-1-yl]-acetamide, reference compound]
13 | – | – | > 5 | – | > 5 | COC(=O)c1cc(Cl)ccc1NC(=O)CN1CCC(n2c(=O)[nH]c3ccccc32)CC1 [Compound 333, 5-Chloro-2-{2-[4-(2-oxo-2,3-dihydro-benzoimidazol-1-yl)-piperidin 1-yl]-acetylamino}-benzoic acid methyl ester, reference compound]
14 | 0.108 | 0.096 | > 5 | > 5 | – | O=C(CN1CCC(n2c(=O)[nH]c3ccccc32)CC1)Nc1ccc(Nc2ccccc2)cc1 [Compound 337, 2-[4-(2-Oxo-2,3-dihydro-benzoimidazol-1-yl)-piperidin-1-yl]-N-(4-phenylamino-phenyl)-acetamide, reference compound]
